Measurements as given in patent US20080207632A1, “PROTEIN KINASE INHIBITORS” (SUPERGEN, INC., priority 2006, published 2008).
Read-outs that look alike come from different tables or passages of the source.

Target: T1, aurora-2 kinase (Homo sapiens, UniProt O14965)
T1 construct: purchased Upstate, Lake Placid, N.Y; host or cells: sf9 cells
T1 sequence (O14965 1-403): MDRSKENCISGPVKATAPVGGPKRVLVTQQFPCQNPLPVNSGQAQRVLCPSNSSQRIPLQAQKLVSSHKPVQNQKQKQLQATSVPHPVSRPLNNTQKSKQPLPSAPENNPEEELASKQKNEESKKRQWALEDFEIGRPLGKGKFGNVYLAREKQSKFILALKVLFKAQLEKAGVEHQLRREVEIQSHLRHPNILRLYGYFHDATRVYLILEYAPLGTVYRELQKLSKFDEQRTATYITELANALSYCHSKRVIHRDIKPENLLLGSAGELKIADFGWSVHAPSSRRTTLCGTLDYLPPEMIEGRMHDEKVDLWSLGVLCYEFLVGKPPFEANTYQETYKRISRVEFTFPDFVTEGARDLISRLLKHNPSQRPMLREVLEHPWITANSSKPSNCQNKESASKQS
Experiment: aurora-2 kinase inhibition assay (Kinase-Glo, ATP remaining)
Type: biochemical
Protocol: (§1) In this assay kinase activity was determined by quantifying the amount of ATP remaining in solution following a kinase reaction by measuring the light units (LU) produced by luciferase using a luminometer. Percent inhibition was determined for individual compounds by comparing luminometer readings of drug-treated reactions to controls containing no drug (DMSO control) and no Aurora-2 enzyme (ATP control) in the following equation: […]
(§2) In a 50 μl reaction, recombinant aurora-2 kinase produced in sf9 cells (Upstate, Lake Placid, N.Y.) was incubated at 30° C. for two hours with 62.5 μM Kemptide (Calbiochem, San Diego, Calif.), 3 μM ATP (Invitrogen, Carlsbad, Calif.) and kinase reaction buffer (40 mM Tris-HCl, 10 mM MgCl2 and 0.1 μg/μl bovine serum albumin (BSA)). This reaction was carried out in the presence of drug substances, which had been previously diluted to desired concentrations in DMSO. After incubation, 50 μl of Kinase-Glo® (Promega, Inc., Madison, Wis.) solution was added to each reaction mixture and allowed to equilibrate for 10 minutes at room temperature. Kinase-Glo solution contains luciferase enzyme and luciferin, which react with ATP to produce light. Kinase activity is determined by quantifying the amount of ATP remaining in solution following the kinase reaction by measuring the light units (LU) produced by luciferase using a luminometer (Thermo-Electron, Vantaa, Finland).
as §1, with “Briefly,” for “In this assay”
as §2, with “μg/Il” for “μg/μl”
as §1, with “Illustrative compounds 2-3, 2-5, 2-7, 2-4 and 2-9 were evaluated in an aurora-2 kinase inhibition assay. In” for “In”

[1] = Example 17, 3 μM ATP, read-out: IC50 (drug concentration at which 50% of aurora-2 kinase activity was inhibited)
[2] = Example 20, unit from the table's spanning head, read-out: IC50 A2K
[3] = Example 54, Table 8, 3 μM ATP, read-out: Aurora-2 Inhibition, IC50

SMILES	IC50 [1]	IC50 [2]	IC50 [3]
CC(=O)NS(=O)(=O)c1ccc(NC(=S)N2CCN(c3ncnc4[nH]c5cc(C(F)(F)F)c(Cl)cc5c34)CC2)cc1 [Compound 1-1, 4-(6-Chloro-7-trifluoromethyl-9H-pyrimido[4,5-b]indol-4-yl)-piperazine-1-carbothioic acid (4-acetylsulfamoyl-phenyl)-amide]	49 nM	–	–
COc1cc2[nH]c3ncnc(N4CCN(C(=S)Nc5ccc(S(=O)(=O)NC(C)=O)cc5)CC4)c3c2cc1OC [Compound 1-2, 4-(6,7-Dimethoxy-9H-pyrimido[4,5-b]indol-4-yl)-piperazine-1-carbothioic acid (4-acetylsulfamoyl-phenyl)-amide]	< 5 nM	≤ 5 nM	–
CC(=O)NS(=O)(=O)c1ccc(NC(=S)N2CCN(c3ncnc4[nH]c5ccc(Cl)cc5c34)CC2)cc1 [Compound 1-3, 4-(6-chloro-9H-pyrimido[4,5-b]indol-4-yl)-piperazine-1-carbothioic acid (4-acetylsulfamoyl-phenyl)-amide]	–	74 nM	–
CC(=O)NS(=O)(=O)c1ccc(NC(=S)N2CCN(c3ncnc4[nH]c5cc(F)ccc5c34)CC2)cc1 [Compound 1-4]	–	23 nM	–
COc1cc2c(cc1O)[nH]c1ncnc(N3CCN(C(=S)Nc4ccc(S(=O)(=O)NC(C)=O)cc4)CC3)c12 [Compound 1-8]	–	18 nM	–
COc1cc2[nH]c3ncnc(N4CCN(C(=S)Nc5ccc(S(=O)(=O)N6CCOCC6)cc5)CC4)c3c2cc1OC [Compound 1-26]	–	317 nM	–
COc1cc2[nH]c3ncnc(N4CCN(C(=S)Nc5ccc(NC(=O)C6CC6)cc5)CC4)c3c2cc1OC [Compound 1-34]	–	2090 nM	–
COc1cc2[nH]c3ncnc(N4CCN(C(=S)Nc5ccc(NC(C)=O)cc5)CC4)c3c2cc1OC [Compound 1-42]	–	4970 nM	–
COc1cc2[nH]c3ncnc(N4CCN(C(=S)Nc5ccc(S(N)(=O)=O)cc5)CC4)c3c2cc1OC [Compound 1-107]	–	586 nM	–
COc1cc2[nH]c3ncnc(N4CCN(C(=S)Nc5ccc(S(C)(=O)=O)cc5)CC4)c3c2cc1OC [Compound 1-115]	–	743 nM	–
COc1cc2[nH]c3ncnc(N4CCN(C(=S)Nc5ccc(S(=O)(=O)Nc6ccc(F)cc6)cc5)CC4)c3c2cc1OC [Compound 2-3, 4-(6,7-dimethoxy-9H-pyrimido[4,5-b]indol-4-yl)-N-(4-(N-(4-fluorophenyl)sulfamoyl)phenyl)piperazine-1-carbothioamide]	–	–	110 nM
COc1ccc2c(c1)[nH]c1ncnc(N3CCN(C(=S)Nc4ccc(S(=O)(=O)Nc5ccc(F)cc5)cc4)CC3)c12 [Compound 2-5, 4-(7-methoxy-9H-pyrimido[4,5-b]indol-4-yl)-N-(4-(N-(4-fluorophenyl)sulfamoyl)phenyl)piperazine-1-carbothioamide]	–	–	569 nM
Cc1ccc(NS(=O)(=O)c2ccc(NC(=S)N3CCN(c4ncnc5[nH]c6cc(Cl)c(N7CCOCC7)cc6c45)CC3)cc2)cc1 [Compound 2-9, 4-(7-chloro-6-morpholino-9H-pyrimido[4,5-b]indol-4-yl)-N-(4-(N-tolylsulfamoyl)phenyl)piperazine-1-carbothioamide]	–	–	837 nM
